Results taken from article PMC8351594, “Design of Novel Amphipathic α-Helical Antimicrobial Peptides with No Toxicity as Therapeutics against the Antibiotic-Resistant Gram-Negative Bacterial Pathogen, Acinetobacter Baumannii” (Journal of medicinal chemistry and drug design, 2019).
Values after ≈ are worked out from the molar mass of the structure shown. Square brackets hold non-standard residues; d marks the D form. Peptide text beside a SMILES is read from it. Dab = NCC[C@H](N)C(=O)O; Dap = NC[C@H](N)C(=O)O

Experiments:
[1] = test system: human red blood cells
Experimental: (§3) Peptide samples (concentrations determined by amino acid analysis) were added to 1% human erythrocytes in phosphate-buffered saline (100 mM NaCl, 80 mM Na2HPO4, 20 mM NaH2PO4, pH 7.4) and the reaction mixtures were incubated at 37°C for 18h in microtiter plates. Two-fold serial dilutions of the peptide samples were carried out. This determination was made by withdrawing aliquots from the hemolysis assays and removing unlysed erythrocytes by centrifugation (800 × g). Hemoglobin release was determined spectrophotometrically at 570 nm. The control for 100% hemolysis was a sample of erythrocytes treated with water. The control for no release of hemoglobin was a sample of 1% erythrocytes without any peptide added. […] The hemolytic activity HC50 is the peptide concentration that causes 50% hemolysis of erythrocytes after 18h. HC50 was determined from a plot of percent lysis versus peptide concentration (μM) using 12 different concentrations up to 1000 micrograms per ml for 18h at 37°C. The average of 3 replicates is used with an average variance of less than 4%. Fresh human blood was obtained from Vitalant, Denver, CO, USA.
(§4) In order to determine that we were able to eliminate hemolysis of human red blood cells, we used the most rigorous test of hemolytic activity (18h at 37°C and up to 1000 μg/mL or >350 μM of AMP). […] The HC50 value is estimated when 50% hemolysis is not observed at 1000 μg/mL by extrapolation of the plots observed in figure 3.

[2] = test system: Acinetobacter baumannii MB9955; conditions: Mueller-Hinton medium, 37°C, 24 h, inoculum 5 × 10^5 CFU/mL; MIC based on three sets of determinations
Experimental: (§1) The A. baumannii strains used in this study consisted of seven strains resistant to Polymyxin B and Colistin (antibiotics of last resort) obtained from MERCK (M89941, M89949, M89951, M89952, M89953, M89955 and M89963). The MICGM in this case is the geometric mean MIC from the seven Acinetobacter baumannii strains used in this study.
(§2) The minimal inhibitory concentration (MIC) is defined as the lowest peptide concentration that inhibited bacterial growth. MICs were measured by a standard microtiter dilution method in Mueller Hinton (MH) medium. Briefly, cells were grown overnight at 37°C in MH broth and were diluted in the same medium. […] The plates were incubated at 37°C for 24h, and the MICs were determined. The MICGM is the geometric mean of the number of MIC values.

[3] = test system: human red blood cells; assay: Hemolytic activity (HC50) determination; conditions: 1% human erythrocytes in PBS pH 7.4, 37°C, 18 h, 12 concentrations up to 1000 μg/mL, hemoglobin release at 570 nm, average of 3 replicates; estimated by extrapolation when 50% hemolysis not observed at 1000 μg/mL
Experimental: as §3, §4

[4] = test system: Acinetobacter baumannii MB9952; conditions: Mueller-Hinton medium, 37°C, 24 h, inoculum 5 × 10^5 CFU/mL; MIC based on three sets of determinations
Experimental: as §1, §2

[5] = test system: Acinetobacter baumannii MB9963; conditions: Mueller-Hinton medium, 37°C, 24 h, inoculum 5 × 10^5 CFU/mL; MIC based on three sets of determinations
Experimental: as §1, §2

[6] = test system: Acinetobacter baumannii MB9951; conditions: Mueller-Hinton medium, 37°C, 24 h, inoculum 5 × 10^5 CFU/mL; MIC based on three sets of determinations
Experimental: as §1, §2

[7] = test system: Acinetobacter baumannii MB9953; conditions: Mueller-Hinton medium, 37°C, 24 h, inoculum 5 × 10^5 CFU/mL; MIC based on three sets of determinations
Experimental: as §1, §2

[8] = test system: Acinetobacter baumannii MB9941; conditions: Mueller-Hinton medium, 37°C, 24 h, inoculum 5 × 10^5 CFU/mL; MIC based on three sets of determinations
Experimental: as §1, §2

[9] = test system: Acinetobacter baumannii MB9949; conditions: Mueller-Hinton medium, 37°C, 24 h, inoculum 5 × 10^5 CFU/mL; MIC based on three sets of determinations
Experimental: as §1, §2

SMILES | lysis of human red blood cells at 1000 μg/mL [1] | MIC MB9955 [2] [µM] | HC50 (concentration of peptide that results in 50% hemolysis) [3] [µM] | MIC MB9952 [4] [µM] | MIC MB9963 [5] [µM] | MIC MB9951 [6] [µM] | MIC MB9953 [7] [µM] | MIC MB9941 [8] [µM] | MIC MB9949 [9] [µM]
CC(=O)N[C@H](CCCCN)C(=O)N[C@H](CC(C)C)C(=O)N[C@@H](CN)C(=O)N[C@H](CO)C(=O)N[C@H](CC(C)C)C(=O)N[C@H](CC(C)C)C(=O)N[C@@H](CN)C(=O)N[C@@H](C(=O)N[C@H](CC(C)C)C(=O)N[C@H](CO)C(=O)N[C@@H](CN)C(=O)N[C@H](C)C(=O)N[C@H](CCCCN)C(=O)N[C@H](C)C(=O)N[C@H](C)C(=O)N[C@H](CCCCN)C(=O)N[C@H](CC(C)C)C(=O)N[C@@H](CN)C(=O)N[C@@H](C(=O)N[C@H](CC(C)C)C(=O)N[C@H](CC(C)C)C(=O)N[C@@H](CN)C(=O)N[C@H](C)C(=O)N[C@H](CC(C)C)C(=O)N[C@H](CO)C(=O)N[C@@H](CN)C(N)=O)[C@H](C)O)[C@H](C)O [D105(Lys^1-6 Dap-1)] (Ac-[dK][dL][Dap][dS][dL][dL][Dap][dT][dL][dS][Dap][dA][dK][dA][dA][dK][dL][Dap][dT][dL][dL][Dap][dA][dL][dS][Dap]-NH2) | essentially no lysis | 0.5 (≈ 1.31 µg/mL) | – | – | – | – | – | – | –
CC(=O)N[C@H](CCCCN)C(=O)N[C@H](CC(C)C)C(=O)N[C@H](CCCCN)C(=O)N[C@H](CO)C(=O)N[C@H](CC(C)C)C(=O)N[C@H](CC(C)C)C(=O)N[C@H](CCCCN)C(=O)N[C@@H](C(=O)N[C@H](CC(C)C)C(=O)N[C@H](CO)C(=O)N[C@H](C)C(=O)N[C@H](C)C(=O)N[C@H](CCCCN)C(=O)N[C@H](CCCCN)C(=O)N[C@H](CCCCN)C(=O)N[C@H](CCCCN)C(=O)N[C@H](CC(C)C)C(=O)N[C@H](C)C(=O)N[C@@H](C(=O)N[C@H](CC(C)C)C(=O)N[C@H](CC(C)C)C(=O)N[C@H](CCCCN)C(=O)N[C@H](C)C(=O)N[C@H](CC(C)C)C(=O)N[C@H](CO)C(=O)N[C@H](CO)C(N)=O)[C@H](C)O)[C@H](C)O [D103(Lys^1Ser^26-5 Lys-2)] (Ac-[dK][dL][dK][dS][dL][dL][dK][dT][dL][dS][dA][dA][dK][dK][dK][dK][dL][dA][dT][dL][dL][dK][dA][dL][dS][dS]-NH2) | – | 0.7 (≈ 1.98 µg/mL) | 134.9 | 0.7 (≈ 1.98 µg/mL) | 0.7 (≈ 1.98 µg/mL) | 0.7 (≈ 1.98 µg/mL) | 0.7 (≈ 1.98 µg/mL) | 0.7 (≈ 1.98 µg/mL) | 0.7 (≈ 1.98 µg/mL)
CC(=O)N[C@H](CCCCN)C(=O)N[C@H](CC(C)C)C(=O)N[C@@H](CCN)C(=O)N[C@H](CO)C(=O)N[C@H](CC(C)C)C(=O)N[C@H](CC(C)C)C(=O)N[C@@H](CCN)C(=O)N[C@@H](C(=O)N[C@H](CC(C)C)C(=O)N[C@H](CO)C(=O)N[C@@H](CCN)C(=O)N[C@H](C)C(=O)N[C@H](CCCCN)C(=O)N[C@H](C)C(=O)N[C@H](C)C(=O)N[C@H](CCCCN)C(=O)N[C@H](CC(C)C)C(=O)N[C@@H](CCN)C(=O)N[C@@H](C(=O)N[C@H](CC(C)C)C(=O)N[C@H](CC(C)C)C(=O)N[C@@H](CCN)C(=O)N[C@H](C)C(=O)N[C@H](CC(C)C)C(=O)N[C@H](CO)C(=O)N[C@H](CO)C(N)=O)[C@H](C)O)[C@H](C)O [D102(Lys^1Ser^26-5 Dab-1)] (Ac-[dK][dL][Dab][dS][dL][dL][Dab][dT][dL][dS][Dab][dA][dK][dA][dA][dK][dL][Dab][dT][dL][dL][Dab][dA][dL][dS][dS]-NH2) | – | 0.7 (≈ 1.88 µg/mL) | >708 | 0.7 (≈ 1.88 µg/mL) | 0.7 (≈ 1.88 µg/mL) | 0.7 (≈ 1.88 µg/mL) | 1.4 (≈ 3.76 µg/mL) | 0.4 (≈ 1.07 µg/mL) | 0.7 (≈ 1.88 µg/mL)
